Results reported in patent US12384764B2, “Pharmaceutical compounds” (Pfizer Inc., priority 2019, dated 2025).
pEC50: −log10 of the molar value.

Assays:
[1] = Liver microsomal stability, human; assay type: in vitro ADME; details: pooled liver microsomes, pH 7.4; human liver microsomes 0.5 mg/mL, 1 μM compound, NADPH, 37° C.; read-out: Liver Microsomal Stability t½, human
Procedure: (§1) Compounds were subjected to the following assays to investigate liver microsomal stability.
(§2) Microsomal Incubation: Experimental Procedure
(§3) Pooled liver microsomes were purchased from a reputable commercial supplier and stored at −80° C. prior to use. Microsomes (final protein concentration 0.5 mg/mL), 0.1 M phosphate buffer pH 7.4 and test compound (final substrate concentration 1 μM; final DMSO concentration 0.25%) were pre-incubated at 37° C. prior to the addition of NADPH (final concentration 1 mM) to initiate the reaction. The final incubation volume was 50 uL. A control incubation was included for each compound tested where 0.1 M phosphate buffer pH 7.4 was added instead of NADPH (minus NADPH). Two control compounds were included with each species. All incubations were performed singularly for each test compound. Each compound was incubated for 0, 5, 15, 30 and 45 min. The control (minus NADPH) was incubated for 45 min only. The reactions were stopped by transferring incubate into acetonitrile at the appropriate time points, in a 1:3 ratio. The termination plates are centrifuged at 3,000 rpm for 20 min at 4° C. to precipitate the protein. Following protein precipitation, the sample supernatants were combined in cassettes of up to 4 compounds, internal standard added, and samples analysed by LC-MS/MS. From a plot of ln peak area ratio (compound peak area/internal standard peak area) against time, the gradient of the line was determined. Subsequently, half-life (t1/2) and intrinsic clearance (CLint) were calculated.

Cell cytotoxicity (CC50) = assay type: cell-based; details: human, Hep-G2 cells; mean of at least two experiments
[2] = Liver microsomal stability, rat; assay type: in vitro ADME; details: pooled liver microsomes, pH 7.4; rat liver microsomes 0.5 mg/mL, 1 μM compound, NADPH, 37° C.; read-out: Liver Microsomal Stability t½, rat
Procedure: as §1, §2, §3

RSV A2 = experiment: RSV plaque reduction assay; assay type: cell-based; details: human respiratory syncytial virus, HepG2, 48 h; Hep-G2 cells, RSV A2, 2 days incubation; mean of at least two experiments
Procedure: Compounds were subjected to an RSV plaque reduction assay according to the following protocol.
Hep-G2 cells (ECACC, 85011430) were passaged in flasks and seeded in 24-well plates in DMEM containing antibiotics and supplemented with 10% FBS. During inoculation and subsequent incubation, cells were cultured in DMEM containing 2% FBS. 100 plaque forming unit/well of RSV (RSV A2 ECACC, 0709161v) was mixed with eight serial dilutions of compound. Subsequently, 100 μL of the virus/compound mixtures was added to confluent Hep-G2 cell monolayers. The cells and virus/compound mixtures were incubated at 37° C. in a humidified 5% CO2 incubator for 2 h prior to removal of the inoculum and addition of 1 mL of overlay (DMEM containing FBS and 0.8% CMC) containing compound dilutions. The cells and were incubated at 37° C. in a humidified 5% CO2 incubator for 2 days.
Cells were washed with PBS before adding 75/25% v/v EtOH/MeOH, for 3 min. Fixative was removed and plates were washed with PBS. A pre-titrated amount of the primary antibody was added in 200 μL PBS/2% milk powder, and plates incubated for 90 min at 37° C. The plates were washed 3 times with PBS/0.05% Tween20 before addition of rabbit anti-goat horse radish peroxidase in 200 μL PBS/2% milk powder, and incubated for 1 h at 37° C. Following three wash steps with PBS/0.05% Tween20, 200 μL ready-to-use TrueBlue was added and plates were incubated at rt for 10-15 min before washing with water. After removal of water, plates were air-dried in the dark.
Plates were scanned and analysed using the Immunospot S6 Macro analyser, which is equipped with BioSpot analysis software for counting immunostained plaques (virospots). Plaque counts were used to calculate % infection relative to the mean of the plaque count in the virus control wells for RSV. The EC50 value was calculated as 50% reduction in signal, respectively, by interpolation of inhibition curves fitted with a 4-parameter nonlinear regression with a variable slope in Dotmatics. Plaque EC50 and cell toxicity CC50 values are a mean of at least two experiments and figures are rounded to whole units.

[3] = Liver microsomal stability, dog; assay type: in vitro ADME; details: pooled liver microsomes, pH 7.4; dog liver microsomes 0.5 mg/mL, 1 μM compound, NADPH, 37° C.; read-out: Liver Microsomal Stability t½, dog
Procedure: as §1, §2, §3

RSV = details: Antimicrobial Agents and Chemotherapy, September 2007, 3346-3353; cited from earlier work

Compound | half-life at 1 μM [1] [min] | CC50 at 2 days (Cell cytotoxicity (CC50)) [µM] | half-life at 1 μM [2] [min] | pEC50 (RSV A2) | half-life at 1 μM [3] [min] | anti-RSV activity (RSV)
CCn1ncc(C(=O)N[C@H]2N=C(c3ccccc3)c3ccccc3NC2=O)c1Oc1c(F)cc(C)cc1F [Example 1, 5-(2,6-Difluoro-4-methylphenoxy)-1-ethyl-N-[(3S)-2-oxo-5-phenyl-1,3-dihydro-1,4-benzodiazepin-3-yl]pyrazole-4-carboxamide] | 36 | > 25 | 5 | 7.04 | 38.6 | –
O=C(N[C@H]1N=C(c2ccccc2)c2cccc(F)c2NC1=O)c1cnn(C2COC2)c1Oc1ccc(Cl)cc1F [Example 3, 5-(4-Chloro-2-fluorophenoxy)-N-[(3S)-9-fluoro-2-oxo-5-phenyl-1,3-dihydro-1,4-benzodiazepin-3-yl]-1-(oxetan-3-yl)pyrazole-4-carboxamide] | 24.5 | > 25 | 38.3 | 7.15 | 140 | –
O=C(Nc1ccccc1F)N[C@H]1N=C(c2ccccc2)c2ccccc2NC1=O [RSV604] | – | – | – | – | – | sub-micromolar
O=C(N[C@H]1N=C(c2ccccc2)c2cccc(F)c2NC1=O)c1cnn(C2CCOCC2)c1Oc1ccc(Cl)cc1F [Example 4, 5-(4-Chloro-2-fluorophenoxy)-N-[(3S)-9-fluoro-2-oxo-5-phenyl-1,3-dihydro-1,4-benzodiazepin-3-yl]-1-(oxan-4-yl)pyrazole-4-carboxamide] | 38.8 | > 25 | 19.7 | 7.17 | 117 | –
Cc1ccc(Oc2c(C(=O)N[C@H]3N=C(c4ccccc4)c4ccccc4NC3=O)cnn2C2CCOCC2)c(F)c1 [Example 2, 5-(2-Fluoro-4-methylphenoxy)-1-(oxan-4-yl)-N-[(3S)-2-oxo-5-phenyl-1,3-dihydro-1,4-benzodiazepin-3-yl]pyrazole-4-carboxamide] | – | > 25 | – | 7.05 | – | –
O=C(N[C@H]1N=C(c2ccccc2)c2cccc(F)c2NC1=O)c1cnn(C2CCOCC2)c1Oc1c(F)cc(Cl)cc1F [Example 6, 5-(4-Chloro-2,6-difluorophenoxy)-N-[(3S)-9-fluoro-2-oxo-5-phenyl-1,3-dihydro-1,4-benzodiazepin-3-yl]-1-(oxan-4-yl)pyrazole-4-carboxamide] | – | > 25 | – | 7.26 | – | –
O=C(N[C@H]1N=C(c2ccccc2)c2cccc(F)c2NC1=O)c1cnn(C2COC2)c1Oc1c(F)cc(Cl)cc1F [Example 5, 5-(4-Chloro-2,6-difluorophenoxy)-N-[(3S)-9-fluoro-2-oxo-5-phenyl-1,3-dihydro-1,4-benzodiazepin-3-yl]-1-(oxetan-3-yl)pyrazole-4-carboxamide] | 15.8 | > 25 | 42.3 | 7.13 | 174 | –
